{"source": "patent US9802962B2", "about": "“Tricyclic pyrone compounds reduce amyloid beta aggregates” (priority 2013, dated 2017)", "key": {"5×FAD mice": {"test_system": "5×FAD mice", "experiment": "In vivo efficacy in 5×FAD mice", "method": "FIGS. 6A-6E. 2-month-old 5×FAD mice were treated with TP70 or vehicle for 6 weeks as described in the text. Four cortical sections evenly distributed through the cerebrum were taken from one hemisphere of each mouse (6 mice in each treatment group) and fluorescently stained with the amyloid dye FSB (blue) and the nuclear dye propidium iodide (PI, red). A: Representative sections that show the PI stain. B: Representative sections that only show the FSB stain. C: Fluorescent staining was objectively quantified by LSC. […] E: A representative Western blot containing the soluble fractions of three mice of each group was analyzed for soluble Aβ dimer (see ref 59 for the method).\nAlthough the mechanism of neuron loss in Alzheimer's disease (AD) remains elusive, it is associated with cerebral accumulation of Aβ42. The 5×FAD mouse model of amyloid deposition expresses five familial AD (FAD) mutations that are additive in driving Aβ42 overproduction."}, "MC65 neuroblastoma cells": {"test_system": "MC65 neuroblastoma cells", "experiment": "MC65 protection assay", "format": "cell-based", "method": "Employing medium-throughput cell-based MC65 protection assay to screen over one hundred TP compounds, seven TP compounds that protect MC65 neuroblastoma cells from death caused by intracellular Aβ have been identified. […] The EC50 values for CP2, TP70, and TP101 are 120, 80, and 70 nM, respectively."}, "[1]": {"experiment": "Plasma PK and bioavailability, iv versus po, in mice", "format": "in vivo", "method": "FIG. 5. Plasma concentrations of TP70 following iv or po administration (25 mg/Kg; iv, n=3 in each timepoint; or po, n=3 in each timepoint). Plasma concentrations were plotted against time post-dosing.\nSince the drug will ultimately be administered orally, the bioavailability (F) of TP70 was determined in mice (male C57BL/6, 4 to 6 months old, n=3/group). Each mouse was treated with TP 70 (25 mg/kg). The drug was initially dissolved in pure dimethyl sulfoxide (DMSO) and then diluted with 0.5% hydroxypropylcellulose (HPC) in distilled water in a final solution containing 2% DMSO. At different time points about 50 μl plasma was sampled via tail cut for blood collection with a tube treated with ethylenediaminetetraacetic acid (EDTA). The compound was measured using HPLC/mass spectrometer. The maximal plasma concentration following iv administration is 16.6±6.1 μg/ml (equivalent to 42 μM) and po is 6.9±0.17 μg/ml (equivalent to 17 μM)."}, "ACAT": {"test_system": "ACAT", "experiment": "ACAT inhibition", "format": "biochemical", "settings": "read-out: half maximal inhibitory concentration (IC50), ACAT", "source_text": "It has been reported that an induction of cholesterol efflux resulting in a reduction of Aβ formation/deposition in vitro and in vivo (Kim, et al., J Alzheimers Dis, 2009, 16:121-131). For additional Detail, see the attached manuscript entitled, “Inhibition of Acyl-CoA: Cholesterol Acyltransferase (ACAT), Overexpression of Cholesterol Transporter Gene, and Protection of Amyloid β (Aβ) Oligomers-Induced Neuronal Cell Death by Tricylic Pyrone Molecules” which is incorporated herein."}, "[2]": {"experiment": "Plasma and brain concentrations after i.v. administration in mice", "format": "in vivo", "method": "FIGS. 3A-3B. FIG. 3A. CP2 and TP70 plasma and brain concentrations following i.v. injection in mice (n=3). FIG. 3B. […] The drug concentration was determined using HPLC and mass spectrometry.\nHPLC/mass spectrometry were employed to quantify CP2 and TP70 in the plasma and brain after i.v. administration in mice. The CP2 concentration was 200-300 μM in the mouse brain between 0.5 and 2 h following 25 mg/kg i.v. administration (FIG. 3A). Similarly, TP70 concentration reached 190 μM in plasma at 5 min and 160 μM in brain at 2 h following 25 mg/Kg i.v. administration (FIGS. 3A and 3B)."}}, "data": [{"smiles": "Cc1cc2c(c(=O)o1)C=C1CCC(C(C)CNCc3ccc(O)cc3)CC1O2", "note": "(stereo not drawn) [TP70]", "values": [{"measurement": "plaque count (FSB stain), cortical sections", "setting": "5×FAD mice; 2-month-old 5×FAD mice, 6 weeks oral treatment, versus vehicle, LSC", "result": "substantial reduction of plaque count"}, {"measurement": "nuclear count (PI stain), cortical sections", "setting": "5×FAD mice; 2-month-old 5×FAD mice, 6 weeks treatment, versus vehicle, LSC", "result": "no difference in nuclear count"}, {"measurement": "cerebral amyloid load", "setting": "5×FAD mice; 5×FAD mice", "result": "substantially reduce"}, {"measurement": "drug toxicity during the course of treatment", "setting": "5×FAD mice; 5×FAD mice", "result": "no apparent drug toxicity"}, {"measurement": "histopathology, hematological counts, and blood chemistry at necropsy", "setting": "5×FAD mice; 5×FAD mice", "result": "No abnormalities"}, {"measurement": "levels of toxic Aβ dimers", "setting": "5×FAD mice; 5×FAD mice", "result": "substantially reduce"}, {"measurement": "concentration required for cell toxicity protection", "setting": "MC65 neuroblastoma cells", "result": "submicromolar"}, {"measurement": "EC50 values (in words)", "setting": "MC65 neuroblastoma cells; protection of MC65 cells from death caused by intracellular Aβ", "result": "nanomolar range"}, {"measurement": "EC50", "setting": "MC65 neuroblastoma cells; protection of MC65 cells from death caused by intracellular Aβ, read-out: effective concentrations for 50% cell survival (EC50)", "result": 80, "unit": "nM"}, {"measurement": "Average concentration of TP70 in plasma", "setting": "[1]; iv route, 5 min", "result": "16.6 ± 6.1", "unit": "mg/L"}, {"measurement": "Average concentration of TP70 in plasma", "setting": "[1]; iv route, 15 min", "result": "10.2 ± 4", "unit": "mg/L"}, {"measurement": "Average concentration of TP70 in plasma", "setting": "[1]; iv route, 30 min", "result": "8.2 ± 3.5", "unit": "mg/L"}, {"measurement": "Average concentration of TP70 in plasma", "setting": "[1]; iv route, 60 min", "result": "3.7 ± 0.8", "unit": "mg/L"}, {"measurement": "Average concentration of TP70 in plasma", "setting": "[1]; iv route, 120 min", "result": "2.02 ± 0.6", "unit": "mg/L"}, {"measurement": "Average concentration of TP70 in plasma", "setting": "[1]; iv route, 240 min", "result": "1.8 ± 0.5", "unit": "mg/L"}, {"measurement": "Average concentration of TP70 in plasma", "setting": "[1]; iv route, 360 min", "result": "0.9 ± 0.3", "unit": "mg/L"}, {"measurement": "F", "setting": "[1]; iv route, fraction", "result": 1}, {"measurement": "Area under the curve (AUC)", "setting": "[1]; iv, 25 mg/kg", "result": 989}, {"measurement": "maximal plasma concentration", "setting": "[1]; iv, 25 mg/kg", "result": "16.6 ± 6.1", "unit": "µg/mL"}, {"measurement": "maximal plasma concentration (equivalent)", "setting": "[1]; iv, 25 mg/kg", "result": 42, "unit": "µM"}, {"measurement": "t1/2", "setting": "[1]; iv, 25 mg/kg", "result": "around 30 min"}, {"measurement": "Average concentration of TP70 in plasma", "setting": "[1]; oral gavage (po) route, 15 min", "result": "2.8 ± 0.09", "unit": "mg/L"}, {"measurement": "Average concentration of TP70 in plasma", "setting": "[1]; oral gavage (po) route, 30 min", "result": "3.9 ± 0.14", "unit": "mg/L"}, {"measurement": "Average concentration of TP70 in plasma", "setting": "[1]; oral gavage (po) route, 60 min", "result": "6.9 ± 0.17", "unit": "mg/L"}, {"measurement": "Average concentration of TP70 in plasma", "setting": "[1]; oral gavage (po) route, 120 min", "result": "4.2 ± 0.19", "unit": "mg/L"}, {"measurement": "Average concentration of TP70 in plasma", "setting": "[1]; oral gavage (po) route, 240 min", "result": "2.4 ± 1.37", "unit": "mg/L"}, {"measurement": "Average concentration of TP70 in plasma", "setting": "[1]; oral gavage (po) route, 360 min", "result": "1.2 ± 0.23", "unit": "mg/L"}, {"measurement": "bioavailability (F)", "setting": "[1]; po versus iv, 25 mg/kg", "result": 68, "unit": "%"}, {"measurement": "Area under the curve (AUC)", "setting": "[1]; po, 25 mg/kg", "result": 678}, {"measurement": "maximal plasma concentration", "setting": "[1]; po, 25 mg/kg", "result": "6.9 ± 0.17", "unit": "µg/mL"}, {"measurement": "maximal plasma concentration (equivalent)", "setting": "[1]; po, 25 mg/kg", "result": 17, "unit": "µM"}, {"measurement": "IC50", "setting": "ACAT", "result": 300, "unit": "nM"}, {"measurement": "brain concentration", "setting": "[2]; brain at 2 h, 25 mg/Kg i.v.", "result": 160, "unit": "µM"}, {"measurement": "CNS penetration", "setting": "[2]; i.v., mice", "result": "good CNS penetration"}, {"measurement": "plasma concentration", "setting": "[2]; plasma at 5 min, 25 mg/Kg i.v.", "result": 190, "unit": "µM"}, {"measurement": "elimination t½", "setting": "[2]; plasma, i.v., 3-compartment model fit", "result": 2.5, "unit": "h"}]}]}
